PubChem BioAssay (NCI)
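A five-concentration, 48-hour dose response in 96-well plates underlies each endpoint, interpolated linearly between surrounding concentrations. TGI: total growth inhibition.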

Tests used:
Assay in all cases: NCI tumour cell line growth inhibition, 48 h
SK-OV-3 ovarian = test system: SK-OV-3 ovarian
A498 renal = test system: A498 renal
DMS 114 small cell lung = test system: DMS 114 small cell lung
RPMI-8226 leukemia = test system: RPMI-8226 leukemia
SK-MEL-28 melanoma = test system: SK-MEL-28 melanoma
SR leukemia = test system: SR leukemia
LXFL 529 NSCLC = test system: LXFL 529 NSCLC
HCC-2998 colon = test system: HCC-2998 colon
OVCAR-8 ovarian = test system: OVCAR-8 ovarian
KM20L2 colon = test system: KM20L2 colon
UACC-257 melanoma = test system: UACC-257 melanoma
HL-60(TB) leukemia = test system: HL-60(TB) leukemia
SF-295 CNS = test system: SF-295 CNS
HOP-92 NSCLC = test system: HOP-92 NSCLC
HOP-62 NSCLC = test system: HOP-62 NSCLC
EKVX NSCLC = test system: EKVX NSCLC
NCI-H23 lung = test system: NCI-H23 lung
OVCAR-5 ovarian = test system: OVCAR-5 ovarian
M14 melanoma = test system: M14 melanoma
SNB-78 CNS = test system: SNB-78 CNS
IGROV1 ovarian = test system: IGROV1 ovarian
SNB-19 CNS = test system: SNB-19 CNS
SN12C renal = test system: SN12C renal
OVCAR-3 ovarian = test system: OVCAR-3 ovarian
786-0 renal = test system: 786-0 renal
HCT-116 colon = test system: HCT-116 colon
COLO 205 colon = test system: COLO 205 colon
SF-539 CNS = test system: SF-539 CNS
CAKI-1 renal = test system: CAKI-1 renal
NCI-H226 lung = test system: NCI-H226 lung
NCI-H460 lung = test system: NCI-H460 lung
NCI-H522 lung = test system: NCI-H522 lung
UACC-62 melanoma = test system: UACC-62 melanoma
UO-31 renal = test system: UO-31 renal
K-562 leukemia = test system: K-562 leukemia
SNB-75 CNS = test system: SNB-75 CNS
U251 CNS = test system: U251 CNS
SW-620 colon = test system: SW-620 colon
HCT-15 colon = test system: HCT-15 colon
XF 498 CNS = test system: XF 498 CNS
MALME-3M melanoma = test system: MALME-3M melanoma
SF-268 CNS = test system: SF-268 CNS
A549 NSCLC = test system: A549 NSCLC
KM12 colon = test system: KM12 colon
SK-MEL-5 melanoma = test system: SK-MEL-5 melanoma
CCRF-CEM leukemia = test system: CCRF-CEM leukemia
DLD-1 colon = test system: DLD-1 colon
RXF-631 renal = test system: RXF-631 renal
ACHN renal = test system: ACHN renal
HOP-18 NSCLC = test system: HOP-18 NSCLC
TK-10 renal = test system: TK-10 renal
MOLT-4 leukemia = test system: MOLT-4 leukemia
HT29 colon = test system: HT29 colon
M19-MEL melanoma = test system: M19-MEL melanoma
RXF 393 renal = test system: RXF 393 renal
SK-MEL-2 melanoma = test system: SK-MEL-2 melanoma
LOX IMVI melanoma = test system: LOX IMVI melanoma
DMS 273 small cell lung = test system: DMS 273 small cell lung

Molecule `COc1ccc(-c2[nH]c3ccccc3c2CCNS(=O)(=O)c2ccc(C)cc2)cc1` has a TGI (SK-OV-3 ovarian) of over 10 µM, a TGI (A498 renal) of over 10 µM and a TGI (DMS 114 small cell lung) of over 10 µM. The TGI (RPMI-8226 leukemia) was over 10 µM, the TGI (SK-MEL-28 melanoma) was over 10 µM and the TGI (SR leukemia) was over 10 µM. It also gave a TGI (LXFL 529 NSCLC) of over 10 µM, a TGI (HCC-2998 colon) of over 10 µM and a TGI (OVCAR-8 ovarian) of over 10 µM. It also gave a TGI (KM20L2 colon) of over 10 µM, a TGI (UACC-257 melanoma) of over 10 µM and a TGI (HL-60(TB) leukemia) of over 10 µM. It also gave a TGI (SF-295 CNS) of over 10 µM, a TGI (HOP-92 NSCLC) of over 10 µM and a TGI (HOP-62 NSCLC) of over 10 µM. The TGI (EKVX NSCLC) was over 10 µM, the TGI (NCI-H23 lung) was over 10 µM and the TGI (OVCAR-5 ovarian) was over 10 µM. The TGI (M14 melanoma) was over 10 µM, the TGI (SNB-78 CNS) was over 10 µM and the TGI (IGROV1 ovarian) was over 10 µM. The TGI (SNB-19 CNS) was over 10 µM, the TGI (SN12C renal) was over 10 µM and the TGI (OVCAR-3 ovarian) was over 10 µM. For the same molecule, the TGI (786-0 renal) was over 10 µM, the TGI (HCT-116 colon) was over 10 µM and the TGI (COLO 205 colon) was 4.03 µM. It also gave a TGI (SF-539 CNS) of over 10 µM, a TGI (CAKI-1 renal) of over 10 µM and a TGI (NCI-H226 lung) of over 10 µM. It also gave a TGI (NCI-H460 lung) of over 10 µM, a TGI (NCI-H522 lung) of over 10 µM and a TGI (UACC-62 melanoma) of over 10 µM. It also gave a TGI (UO-31 renal) of over 10 µM, a TGI (K-562 leukemia) of over 10 µM and a TGI (SNB-75 CNS) of over 10 µM. The TGI (U251 CNS) was over 10 µM, the TGI (SW-620 colon) was over 10 µM and the TGI (HCT-15 colon) was over 10 µM. For the same molecule, the TGI (XF 498 CNS) was over 10 µM, the TGI (MALME-3M melanoma) was over 10 µM and the TGI (SF-268 CNS) was over 10 µM. It also gave a TGI (A549 NSCLC) of over 10 µM, a TGI (KM12 colon) of over 10 µM and a TGI (SK-MEL-5 melanoma) of over 10 µM. The TGI (CCRF-CEM leukemia) was over 10 µM, the TGI (DLD-1 colon) was over 10 µM and the TGI (RXF-631 renal) was over 10 µM. It also gave a TGI (ACHN renal) of over 10 µM, a TGI (HOP-18 NSCLC) of over 10 µM and a TGI (TK-10 renal) of over 10 µM. For the same molecule, the TGI (MOLT-4 leukemia) was over 10 µM, the TGI (HT29 colon) was over 10 µM and the TGI (M19-MEL melanoma) was over 10 µM. The TGI (RXF 393 renal) was over 10 µM, the TGI (SK-MEL-2 melanoma) was over 10 µM and the TGI (LOX IMVI melanoma) was over 10 µM. The TGI (DMS 273 small cell lung) was over 10 µM.
